From paper PMC10442441, “Characterization of two O-methyltransferases involved in the biosynthesis of O-methylated catechins in tea plant” (Nature Communications, 2023) come the findings set out here.

This assay has as its target T1, CsFAOMT1 (Camellia sinensis, UniProt A0A7J7GXF2).
T1 construct: gene HYC85_015345
Conditions: 1.0 mM Mg2+, pH 7.4, 40 °C, exact value in supplement.

Molecules are shown by their SMILES. Read-outs that look alike come from different tables or passages of the source.

T1 sequence (A0A7J7GXF2 entry or part of it): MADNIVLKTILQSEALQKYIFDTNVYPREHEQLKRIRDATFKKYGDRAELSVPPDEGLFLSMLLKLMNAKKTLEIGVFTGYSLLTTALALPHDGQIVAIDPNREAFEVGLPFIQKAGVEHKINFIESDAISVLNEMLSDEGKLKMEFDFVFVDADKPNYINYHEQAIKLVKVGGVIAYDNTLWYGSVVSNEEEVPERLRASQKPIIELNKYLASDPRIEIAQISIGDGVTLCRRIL

With `O=c1c(O[C@@H]2O[C@H](CO)[C@@H](O)[C@H](O)[C@H]2O)c(-c2ccc(O)c(O)c2)oc2cc(O)cc(O)c12` [isoquercitrin], the Km (1 mM SAM) was greater than 2500 µM. On to `COC(=O)c1cc(O)c(O)c(O)c1` [methyl gallate], for which the Km (saturating SAM) was less than 4 µM. Consider `O=c1c(O)c(-c2cc(O)c(O)c(O)c2)oc2cc(O)cc(O)c12` [myricetin], for which, where the note is “saturating SAM”, the Km was less than 4 µM.
